Assay results as given in paper PMC6754450, “Antimicrobial activity and mechanism of action of a novel peptide present in the ecdysis process of centipede Scolopendra subspinipes subspinipes” (Scientific Reports, 2019).
≈ marks a conversion by molar mass, not a printed value. Where a SMILES comes first, the peptide text is derived from it.

How the values were obtained:
[1] = system: Alcaligenes faecalis ATCC 8750; assay: Liquid growth inhibition assay (MIC/MBC); assay type: cell-based; conditions: PB medium, highest concentration tested 100 µM, triplicate
Procedure: (§1) During the purification procedure, the antimicrobial activities of the fractions were monitored by liquid growth inhibition assays against E. coli SBS 363, M. luteus A270, A. niger, and C. albicans MDM8. Bacteria were cultured in poor nutrient broth (PB) (1.0 g peptone in 100 mL of water containing 86 mM NaCl at pH 7.4; 217 mOsm), and fungi and yeasts were cultured in poor potato dextrose broth (1/2- strength PDB) (1.2 g potato dextrose in 100 mL of water at pH 5.0; 79 mOsm). Determination of antimicrobial activity was performed as previously described[12]–[14].
(§2) The MIC is defined as the minimum concentration of peptide required to achieve 100% growth inhibition. […] The two peptides were dissolved in ultrapure water at a final concentration of 1 mM. […] MBCs were determined after 96 h of incubation at 30 °C. The lowest concentration with no visible growth was defined as the MBC, indicating 99.5% killing of the original inoculum. Microbial growth was measured by monitoring the increase in optical density at 595 nm using a Victor 3TM 1420 multilabel counter (PerkinElmer, Waltham, MA, USA). Assays were performed in triplicate.

Aspergillus niger = assay: Liquid growth inhibition assay (MIC/MBC); assay type: cell-based; conditions: 1/2-strength PDB, highest concentration tested 100 µM, triplicate
Procedure: as §1, §2

[2] = system: Bacillus megaterium ATCC 10778; assay: Liquid growth inhibition assay (MIC/MBC); assay type: cell-based; conditions: PB medium, highest concentration tested 100 µM, triplicate
Procedure: as §1, §2

[3] = system: Bacillus subtilis ATCC 6633; assay: Liquid growth inhibition assay (MIC/MBC); assay type: cell-based; conditions: PB medium, highest concentration tested 100 µM, triplicate
Procedure: as §1, §2

Beauveria bassiana = assay: Liquid growth inhibition assay (MIC/MBC); assay type: cell-based; conditions: 1/2-strength PDB, highest concentration tested 100 µM, triplicate
Procedure: as §1, §2

Candida albicans MDM8 = assay: Liquid growth inhibition assay (MIC/MBC); assay type: cell-based; conditions: 1/2-strength PDB, highest concentration tested 100 µM, triplicate
Procedure: as §1, §2

[4] = system: Candida tropicalis IOC 4560; assay: Liquid growth inhibition assay (MIC/MBC); assay type: cell-based; conditions: 1/2-strength PDB, highest concentration tested 100 µM, triplicate
Procedure: as §1, §2

[5] = system: Enterobacter cloacae β-12; assay: Liquid growth inhibition assay (MIC/MBC); assay type: cell-based; conditions: PB medium, highest concentration tested 100 µM, triplicate
Procedure: as §1, §2

Escherichia coli D31 = assay: Liquid growth inhibition assay (MIC/MBC); assay type: cell-based; conditions: PB medium, highest concentration tested 100 µM, triplicate
Procedure: as §1, §2

Escherichia coli SBS 363 = assay: Liquid growth inhibition assay (MIC/MBC); assay type: cell-based; conditions: PB medium, highest concentration tested 100 µM, triplicate
Procedure: as §1, §2

Micrococcus luteus A270 = assay: Liquid growth inhibition assay (MIC/MBC); assay type: cell-based; conditions: PB medium, highest concentration tested 100 µM, triplicate
Procedure: as §1, §2

[6] = system: Pseudomonas aeruginosa ATCC 27853; assay: Liquid growth inhibition assay (MIC/MBC); assay type: cell-based; conditions: PB medium, highest concentration tested 100 µM, triplicate
Procedure: as §1, §2

[7] = system: Saccharomyces cerevisiae PM340; assay: Liquid growth inhibition assay (MIC/MBC); assay type: cell-based; conditions: 1/2-strength PDB, highest concentration tested 100 µM, triplicate
Procedure: as §1, §2

[8] = system: Salmonella Arizonae ATCC 13314; assay: Liquid growth inhibition assay (MIC/MBC); assay type: cell-based; conditions: PB medium, highest concentration tested 100 µM, triplicate
Procedure: as §1, §2

[9] = system: Salmonella Typhimurinum ATCC 14028; assay: Liquid growth inhibition assay (MIC/MBC); assay type: cell-based; conditions: PB medium, highest concentration tested 100 µM, triplicate
Procedure: as §1, §2

[10] = system: Serratia marcescens ATCC 4112; assay: Liquid growth inhibition assay (MIC/MBC); assay type: cell-based; conditions: PB medium, highest concentration tested 100 µM, triplicate
Procedure: as §1, §2

[11] = system: Staphylococcus aureus ATCC 29213; assay: Liquid growth inhibition assay (MIC/MBC); assay type: cell-based; conditions: PB medium, highest concentration tested 100 µM, triplicate
Procedure: as §1, §2

[12] = 25% fresh human blood plasma in water, 37 °C; 20 µL of 10 mg/mL peptide stock in 1 mL; TFA quench; LC/ESI-MS peak area; triplicate; followed over 360 min
Procedure: An aliquot (20 μL) of the aqueous peptide stock solution (10 mg/mL) was added to 1 mL of 25% solution of fresh human blood plasma in water at 37 °C. Aliquots (50 μL) were withdrawn and added to 5 μL of pure trifluoroacetic acid (TFA) at different time intervals, then incubated at 5 °C for 15 min. Following incubation, the resulting mixtures were centrifuged at 3000 g for 5 min. The supernatants (20 μL) were injected into an online LC/ESI-MS equipment. Elution was performed using an ACN/TFA linear gradient of 3% to 57% ACN at a flow rate of 0.3 mL/min for 30 min. The remaining peptide was monitored by the corresponding peak area in the chromatogram. Assays were conducted in triplicate.
The human blood sample was obtained from a healthy adult donor at Vital Brazil Hospital in accordance with Ethical Guidelines of the Butantan Institute (protocol CEUAIB No. I-1043/13). Written informed consent was obtained from the donor.

human erythrocytes = assay: Haemolytic activity; assay type: cell-based; conditions: 3% erythrocytes in PBS, 3 h, 37 °C; for Haemolysis (%): A414, relative to 0.1% Triton X-100, triplicate
Procedure: Absorbance in the supernatant was measured at 414 nm. The haemolysis percentage was expressed in relation to a 100% lysis control (erythrocytes incubated with 0.1% Triton X-100); PBS was used as a negative control. Assays were conducted in triplicate.
Red blood cells were obtained under the same conditions and from the same donor mentioned in the plasma stability assay section.

[13] = system: All of the microorganisms tested; assay: Antimicrobial activity, summary over all microorganisms tested; assay type: cell-based; conditions: summary of Table 1; 17 bacterial, yeast and fungal strains
Procedure: as §1, §2

[14] = 100% growth inhibition, two-fold serial dilution, 30 °C, 18 h
[15] = no visible growth after 96 h at 30 °C

Compound: CC(C)[C@H](N)C(=O)N[C@@H](C)C(=O)N[C@@H](CCC(=O)O)C(=O)N[C@@H](C)C(=O)N[C@@H](CCCNC(=N)N)C(=O)N[C@@H](CCC(N)=O)C(=O)NCC(=O)N[C@@H](CO)C(=O)N[C@@H](Cc1ccccc1)C(=O)N[C@@H](CO)C(=O)N[C@@H](Cc1ccc(O)cc1)C(=O)O [Pinipesin] (H-VAEARQGSFSY-OH)
- MIC [1, 14]: 15.16 µg/mL (≈ 12.5 µM)
- MBC [1, 15]: 15.16 µg/mL (≈ 12.5 µM)
- MIC (Aspergillus niger; [14]): 30.33 µg/mL (≈ 25 µM)
- MBC (Aspergillus niger; [15]): 30.33 µg/mL (≈ 25 µM)
- MIC [2, 14]: 15.16 µg/mL (≈ 12.5 µM)
- MBC [2, 15]: 15.16 µg/mL (≈ 12.5 µM)
- MIC [3, 14]: 30.33 µg/mL (≈ 25 µM)
- MBC [3, 15]: 30.33 µg/mL (≈ 25 µM)
- MIC (Beauveria bassiana; [14]): 30.33 µg/mL (≈ 25 µM)
- MBC (Beauveria bassiana; [15]): 30.33 µg/mL (≈ 25 µM)
- MIC (Candida albicans MDM8; [14]): 30.33 µg/mL (≈ 25 µM)
- MBC (Candida albicans MDM8; [15]): 30.33 µg/mL (≈ 25 µM)
- MIC [4, 14]: 30.33 µg/mL (≈ 25 µM)
- MBC [4, 15]: 30.33 µg/mL (≈ 25 µM)
- MIC [5, 14]: 30.33 µg/mL (≈ 25 µM)
- MBC [5, 15]: 30.33 µg/mL (≈ 25 µM)
- MIC (Escherichia coli D31; [14]): 15.16 µg/mL (≈ 12.5 µM)
- MBC (Escherichia coli D31; [15]): 15.16 µg/mL (≈ 12.5 µM)
- MIC (Escherichia coli SBS 363; [14]): 30.33 µg/mL (≈ 25 µM)
- MBC (Escherichia coli SBS 363; [15]): 30.33 µg/mL (≈ 25 µM)
- MIC (Micrococcus luteus A270; [14]): 7.58 µg/mL (≈ 6.24 µM)
- MBC (Micrococcus luteus A270; [15]): 15.16 µg/mL (≈ 12.5 µM)
- MIC [6, 14]: 15.16 µg/mL (≈ 12.5 µM)
- MBC [6, 15]: 15.16 µg/mL (≈ 12.5 µM)
- MIC [7, 14]: 30.33 µg/mL (≈ 25 µM)
- MBC [7, 15]: 30.33 µg/mL (≈ 25 µM)
- MIC [8, 14]: 30.33 µg/mL (≈ 25 µM)
- MBC [8, 15]: 30.33 µg/mL (≈ 25 µM)
- MIC [9, 14]: 15.16 µg/mL (≈ 12.5 µM)
- MBC [9, 15]: 15.16 µg/mL (≈ 12.5 µM)
- MIC [10, 14]: 30.33 µg/mL (≈ 25 µM)
- MBC [10, 15]: 30.33 µg/mL (≈ 25 µM)
- MIC [11, 14]: 7.58 µg/mL (≈ 6.24 µM)
- MBC [11, 15]: 7.58 µg/mL (≈ 6.24 µM)
- Time within which peptide is almost totally digested in human plasma [12]: ≤ 60 min
- Haemolysis (%) (human erythrocytes; 4 µM peptide): 0%
- Haemolysis (%) (human erythrocytes; 8 µM peptide): 0%
- Haemolysis (%) (human erythrocytes; 16 µM peptide): 0%
- Haemolysis (%) (human erythrocytes; 32 µM peptide): 0%
- Haemolysis (%) (human erythrocytes; 125 µM peptide): 0%
- Haemolysis (%) (human erythrocytes; 250 µM peptide): 0%
- Haemolysis (%) (human erythrocytes; 500 µM peptide): 25.14%
- Haemoglobin release at the concentrations active against bacteria, yeasts and fungi (human erythrocytes): No haemoglobin release was observed

Compound: CC(=O)N[C@H](C(=O)N[C@@H](C)C(=O)N[C@@H](CCC(=O)O)C(=O)N[C@@H](C)C(=O)N[C@@H](CCCNC(=N)N)C(=O)N[C@@H](CCC(N)=O)C(=O)NCC(=O)N[C@@H](CO)C(=O)N[C@@H](Cc1ccccc1)C(=O)N[C@@H](CO)C(=O)N[C@@H](Cc1ccc(O)cc1)C(N)=O)C(C)C [Pinipesin AC] (Ac-VAEARQGSFSY-NH2)
- Concentrations at which active against all microorganisms tested [13]: did not show antimicrobial activity
- Time within which peptide is almost totally digested in human plasma [12]: ≤ 60 min
